Experimental data as given in publication PMC6964137 (The Oncologist, 2019).
Where two headings read alike, the source gives them in different places.

Assays:
[1] = Plasma pharmacokinetics, Cycle 1; format: in vivo, patients
[2] = cited from earlier work
[3] = tested on: NRAS- and BRAF-mutant melanoma; conditions: single agent, cited from earlier work
[4] = cited from earlier work; remark: listed apart in the source
ovarian cancer = conditions: single agent, irrespective of BRAF or KRAS status; cited from earlier work

Cn1cnc2c(F)c(Nc3ccc(Br)cc3F)c(C(=O)NOCCO)cc21 [binimetinib]
AUC ([1]; human, plasma, oral, mean AUCtau, binimetinib 45 mg b.i.d. and buparlisib 80 mg q.d.): 2670 ng·h/mL
Effect of buparlisib on PK of binimetinib ([1]; in vivo): not altered by buparlisib
MTD, single agent [2]: 60 mg b.i.d.
mean AUCtau ([2]; single-agent phase I study, same dosing schedule): 1,740 ng•hour/mL
Objective response rate ([3]; BRAF-mutant melanoma): 6%
Objective response rate ([3]; NRAS-mutant melanoma): 11%

Nc1cc(C(F)(F)F)c(-c2cc(N3CCOCC3)nc(N3CCOCC3)n2)cn1 [buparlisib]
AUC ([1]; human, plasma, oral, AUCtau, present study, combination at RP2D): 11700 ng·h/mL
Cmax ([1]; human, plasma, oral, Cmax, present study, combination at RP2D): 764 ng/mL
Reduction of Cmax and AUCtau when combined with binimetinib ([1]; in many patients, versus single-agent data): > 50%
MTD, single agent [4]: 100 mg once daily (q.d.)
AUCtau ([4]; single-agent study): 15,413 ng•hour/mL
Cmax ([4]; single-agent study): 1,098 ng/mL

Cn1cnc2c(F)c(Nc3ccc(Br)cc3Cl)c(C(=O)NOCCO)cc21 [selumetinib]
Response rate (ovarian cancer): 15%
